Experimental data reported in patent publication US6737383B1, “Herbicidal oxadiazolidines” (priority 1999, dated 2004).

Assays:
corn = experiment: Test B pre/postemergence corn; format: in vivo, Zea mays
Method in brief: (§1)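 Response is a visual 0-to-10 score relative to untreated plants, where 0 means no effect and 10 means complete control, taken twelve to sixteen days after application. Treatments went onto soil at planting and onto foliage of 1- to 4-leaf plants, using a surfactant-containing non-phytotoxic solvent.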

soybean = experiment: Test B pre/postemergence soybean; format: in vivo, Glycine max
Method in brief: as §1

rice = experiment: Test B flood test rice; format: in vivo, Oryza sativa
Method in brief: (§2)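 Flood test on plants grown to the 2-leaf stage; treated plants kept in greenhouse twelve to sixteen days, then visually rated against controls on a 0 (no effect) to 10 (complete control) scale.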

surinam grass = experiment: Test B pre/postemergence surinam grass; format: in vivo, Brachiaria decumbens
Method in brief: as §1

smallflower flatsedge = experiment: Test B flood test smallflower flatsedge; format: in vivo, Cyperus difformis
Method in brief: as §2

cocklebur = experiment: Test B pre/postemergence cocklebur; format: in vivo, Xanthium strumarium
Method in brief: as §1

wild oat = experiment: Test B pre/postemergence wild oat; format: in vivo, Avena fatua; conditions: for Plant response rating, Wild oats: Rate 250 g/ha
Method in brief: as §1

duck salad = experiment: Test B flood test duck salad; format: in vivo, Heteranthera limosa
Method in brief: as §2

rape = experiment: Test B pre/postemergence rape; format: in vivo, Brassica napus
Method in brief: as §1

blackgrass = experiment: Test B pre/postemergence blackgrass; format: in vivo, Alopecurus myosuroides
Method in brief: as §1

wheat = experiment: Test B pre/postemergence wheat; format: in vivo, Triticum aestivum; conditions: for Plant response rating, Wheat: Rate 250 g/ha
Method in brief: as §1

velvetleaf = experiment: Test B pre/postemergence velvetleaf; format: in vivo, Abutilon theophrasti; conditions: for Plant response rating, Velvetleaf: Rate 250 g/ha
Method in brief: as §1

sugar beet = experiment: Test B pre/postemergence sugar beet; format: in vivo, Beta vulgaris; conditions: for Plant response rating, Sugarbeets: Rate 250 g/ha
Method in brief: as §1

crabgrass = experiment: Test B pre/postemergence crabgrass; format: in vivo, Digitaria sanguinalis
Method in brief: as §1

purple nutsedge = experiment: Test B pre/postemergence purple nutsedge; format: in vivo, Cyperus rotundus
Method in brief: as §1

bedstraw = experiment: Test B pre/postemergence bedstraw; format: in vivo, Galium aparine
Method in brief: as §1

bamyardgrass = experiment: Test B flood test barnyardgrass; format: in vivo, Echinochloa crus-galli
Method in brief: as §2

[1] = Postemergence, Rate 62 g/ha, scale 0 to 10, 0 is no effect, 10 is complete control
[2] = Postemergence, Rate 125 g/ha, scale of 0 to 10 where 0 is no effect and 10 is complete control
[3] = Postemergence, Rate 250 g/ha, scale 0 to 10, 0 no effect, 10 complete control
[4] = Preemergence, Rate 31 g/ha, visual rating, scale 0 to 10 (0 no effect, 10 complete control)
[5] = Preemergence, Rate 62 g/ha, scale 0 to 10 (0 no effect, 10 complete control)
[6] = Preemergence, Rate 125 g/ha, scale 0 to 10 (0 no effect, 10 complete control)
[7] = Preemergence, Rate 250 g/ha, scale of 0 to 10 where 0 is no effect and 10 is complete control
[8] = Rate 31 g/ha, Postemergence, scale 0 to 10
[9] = Postemergence (flood test species), Rate 125 g/ha, scale of 0 to 10 where 0 is no effect and 10 is complete control
[10] = Rate 31 g/ha, Postemergence section (flood test species), scale 0 to 10
[11] = Rate 250 g/ha, Postemergence (flood test), scale 0 to 10, 0 is no effect, 10 is complete control
[12] = Preemergence, Rate 125 g/ha, 0 is no effect, 10 is complete control
[13] = Preemergence, scale of 0 to 10 where 0 is no effect and 10 is complete control
[14] = Postemergence, scale 0 to 10, 0 is no effect, 10 is complete control
[15] = flood test, listed under Postemergence, Rate 250 g/ha, scale 0 to 10, 0 no effect, 10 complete control

CC(C)N(C(=O)n1oc(=O)n(-c2cnn(C)c2)c1=O)c1ccc(F)cc1 [Compound 98]
7: Plant response rating, Crabgrass (crabgrass; [6])
2: Plant response rating, Wild oats (wild oat; [13]) | Ducksalad plant response rating (duck salad; [9]) | Blackgrass plant response rating (blackgrass; [5]) | Plant response rating, Velvetleaf (velvetleaf; [13]) | Crabgrass plant response rating (crabgrass; [3]) | Crabgrass plant response rating (crabgrass; [4])
1: Soybean plant response rating (soybean; [1]) | Soybean plant response rating (soybean; [2]) | Plant response rating, Soybean (soybean; Rate 250 g/ha, Postemergence, scale 0 to 10, 0 is no effect, 10 is complete control) | Plant response rating, Wheat (wheat; [13])
9: Barnyardgrass plant response rating (bamyardgrass; Rate 125 g/ha, Postemergence section (flood test species), scale 0 to 10, 0 no effect, 10 complete control) | Barnyardgrass plant response rating (bamyardgrass; [15])
3: Ducksalad plant response rating (duck salad; [15]) | Plant response rating, Sugarbeets (sugar beet; [13]) | Barnyardgrass plant response rating (bamyardgrass; [10])
4: Rice plant response rating (rice; [9]) | Crabgrass plant response rating (crabgrass; [5])
5: Barnyardgrass plant response rating (bamyardgrass; [1])
0: Corn plant response rating (corn; [1]) | Corn plant response rating (corn; [2]) | Corn plant response rating (corn; [3]) | Corn plant response rating (corn; [4]) | Corn plant response rating (corn; [5]) | Plant response rating, Corn (corn; [6]) | Plant response rating, Corn (corn; [7]) | Corn plant response rating (corn; [8]) | Soybean plant response rating (soybean; [4]) | Soybean plant response rating (soybean; [5]) | Plant response rating, Soybean (soybean; [6]) | Plant response rating, Soybean (soybean; [7]) | Rice plant response rating (rice; [1]) | Rice plant response rating (rice; [10]) | B. signalgrass plant response rating (surinam grass; [1]) | B. signalgrass plant response rating (surinam grass; [3]) | B. signalgrass plant response rating (surinam grass; [4]) | B. signalgrass plant response rating (surinam grass; [5]) | Plant response rating, B. signalgrass (surinam grass; [6]) | Plant response rating, B. signalgrass (surinam grass; [7]) | B. signalgrass plant response rating (surinam grass; [8]) | B. signalgrass plant response rating (surinam grass; Rate 125 g/ha, Postemergence, scale 0 to 10, 0 no effect, 10 complete control) | S. Flatsedge plant response rating (smallflower flatsedge; [1]) | Cocklebur plant response rating (cocklebur; [1]) | Cocklebur plant response rating (cocklebur; [2]) | Cocklebur plant response rating (cocklebur; [3]) | Cocklebur plant response rating (cocklebur; [4]) | Cocklebur plant response rating (cocklebur; [5]) | Plant response rating, Cocklebur (cocklebur; [6]) | Plant response rating, Cocklebur (cocklebur; [7]) | Cocklebur plant response rating (cocklebur; [8]) | Wild oats plant response rating (wild oat; [1]) | Wild oats plant response rating (wild oat; [2]) | Wild oats plant response rating (wild oat; [4]) | Wild oats plant response rating (wild oat; [5]) | Wild oats plant response rating (0 to 10 scale) (wild oat; [12]) | Plant response rating, Wild oats (wild oat; [14]) | Ducksalad plant response rating (duck salad; [1]) | Ducksalad plant response rating (duck salad; [10]) | Rape plant response rating (rape; [1]) | Rape plant response rating (rape; [2]) | Rape plant response rating (rape; [3]) | Rape plant response rating (rape; [4]) | Rape plant response rating (rape; [5]) | Plant response rating, Rape (rape; [6]) | Plant response rating, Rape (rape; [7]) | Rape plant response rating (rape; [8]) | Blackgrass plant response rating (blackgrass; [1]) | Blackgrass plant response rating (blackgrass; [2]) | Blackgrass plant response rating (blackgrass; [3]) | Blackgrass plant response rating (blackgrass; [4]) | Blackgrass plant response rating (blackgrass; [8]) | Wheat plant response rating (wheat; [1]) | Wheat plant response rating (wheat; [2]) | Wheat plant response rating (wheat; [4]) | Wheat plant response rating (wheat; [5]) | Wheat plant response rating (0 to 10 scale) (wheat; [12]) | Plant response rating, Wheat (wheat; [14]) | Velvetleaf plant response rating (velvetleaf; [1]) | Velvetleaf plant response rating (velvetleaf; [2]) | Velvetleaf plant response rating (velvetleaf; [4]) | Velvetleaf plant response rating (velvetleaf; [5]) | Velvetleaf plant response rating (0 to 10 scale) (velvetleaf; [12]) | Plant response rating, Velvetleaf (velvetleaf; [14]) | Sugarbeets plant response rating (sugar beet; [1]) | Sugarbeets plant response rating (sugar beet; [2]) | Sugarbeets plant response rating (sugar beet; [4]) | Sugarbeets plant response rating (sugar beet; [5]) | Sugarbeets plant response rating (0 to 10 scale) (sugar beet; [12]) | Plant response rating, Sugarbeets (sugar beet; [14]) | Crabgrass plant response rating (crabgrass; [1]) | Crabgrass plant response rating (crabgrass; [2]) | Crabgrass plant response rating (crabgrass; [8]) | Nutsedge plant response rating (purple nutsedge; [1]) | Nutsedge plant response rating (purple nutsedge; [2]) | Nutsedge plant response rating (purple nutsedge; [3]) | Nutsedge plant response rating (purple nutsedge; [4]) | Nutsedge plant response rating (purple nutsedge; [5]) | Plant response rating, Nutsedge (purple nutsedge; [6]) | Plant response rating, Nutsedge (purple nutsedge; [7]) | Nutsedge plant response rating (purple nutsedge; [8]) | Bedstraw plant response rating (bedstraw; [1]) | Bedstraw plant response rating (bedstraw; [4]) | Bedstraw plant response rating (bedstraw; [5]) | Plant response rating, Bedstraw (bedstraw; [6]) | Plant response rating, Bedstraw (bedstraw; [7]) | Bedstraw plant response rating (bedstraw; [8])
8: S. Flatsedge plant response rating (smallflower flatsedge; [9]) | Plant response rating, S. Flatsedge (smallflower flatsedge; [11]) | Plant response rating, Blackgrass (blackgrass; [7]) | Plant response rating, Crabgrass (crabgrass; [7])
6: Plant response rating, Rice (rice; [11]) | Plant response rating, Blackgrass (blackgrass; [6])
